Assay results from paper PMC12575728, “Galactose-modified small molecule modulator targets RORα to enhance circadian rhythm and alleviate periodontitis-associated alveolar bone loss” (Bone Research, 2025).

How the values were obtained:
[1] = Toxicity and safety evaluation in vivo (blood biochemistry, histopathology); settings: mice, 10 mg/Kg
Description: (§1) 379 Figure S34. Exploration of the inhibitory effect of compound 9 on the targeting function of RORs. a.
(§2) 380 Synthetic route of compound 9. b. Cytotoxicity assessment of compound 9 by CCK-8 assay. c.qPCR
(§3) 381 analysis of downstream target genes (FGF21 and G6Pase) in compound 9-treated HepG2 cells(n=6).
(§4) 382 d. Cotransfection of HEK293T cells with RORα or RORγ and reporters containing the FGF21 or
(§5) 384 5μM each of Gala-SR and SR1078. (* represents the comparison with DMSO*P<0.05, n=4).
(§6) 386 Figure S35. Impact of Gala-SR on circadian clock gene expression in periodontal ligament stem cells.
(§7) 387 qPCR analysis of core clock genes at multiple time points in synchronized hPDLSCs treated with 5
(§8) 391 Figure S36.Toxicity and safety evaluation in vivo.a. After intraperitoneal injection of Gala-SR and
(§9) 392 SR1078 for 2 weeks, mouse serum was collected to measure […] (ALT, AST, CREA,
393 and BUN. ns, not significant) to assess the drugs' impact on liver function. b. HE staining was
394 performed on liver, kidney, and heart tissues from mice after 2 weeks of intraperitoneal injection with […]

[2] = system: RORα/γ; assay: PCR of RORα/γ downstream target genes G6Pase and FGF21 in HepG2 cells; assay type: cell-based
Description: Cells were seeded into 6-well plates, treated with the drug for 24 h, and total RNA samples were extracted using TRIzol reagent (Vazyme, China). The extraction of total RNA was performed according to the following steps: After removal of the supernatant, the cells were thoroughly washed three times with phosphate-buffered saline (PBS). Subsequently, the cells were lysed by the application of 1 mL TRIzol reagent. The resulting samples were harvested into frozen 2 mL Eppendorf microcentrifuge tubes and incubated at room temperature for 5 min. A volume of 0.2 mL of chloroform was added to the microcentrifuge tubes to ensure homogenization of the samples, which were then vortexed and incubated at room temperature for another 10 min. The samples were then centrifuged at a speed of 12 000 × g in a microcentrifuge at 4 °C for 15 min. The upper aqueous phase was subsequently collected and transferred to a new 2 mL microcentrifuge tube and mixed with an equal volume of isopropanol. The mixture was then centrifuged at a speed of 12 000 × g in a table microcentrifuge at 4 °C for 10 min. The resulting precipitates were washed once with 1 mL of 75% ethanol and once with 100% ethanol, followed by centrifugation at a speed of 7 500 × g in a table microcentrifuge for 5 min. Finally, the pellet was dissolved in RNase-free DEPC-treated water.
(§10) RNA from liver, periodontal tissues and cell samples was prepared as previously described. Total RNA (1 ug) was synthesized into cDNA using […] (Vazyme). mRNA expression levels were normalized to GAPDH. Relative expression levels and enrichment contents were calculated using the comparative Ct Method. Primer information is detailed in Data file S1.

[3] = system: human periodontal ligament stem cells; assay: qPCR of circadian clock genes in synchronized human periodontal ligament stem cells; assay type: cell-based; settings: synchronized hPDLSCs, 5 µM, compared to DMSO and SR1078
Description: as §10, §1, §2, §3, §4, §5, §6, §7, §8, §9
393 and BUN. ns, not significant) to assess the drugs' impact on liver function. b. HE staining was […]

[4] = system: β-galactosidase; assay: Hydrolysis of Gala-SR by β-galactosidase (MS); assay type: in vitro ADME; settings: mass spectrometry
[5] = parameters: method as in PMID 20735016; settings: cited from earlier work

SMILES	histopathological examination of liver, kidney, and heart [1]	G6Pase and FGF21 expression, with galactosidase inhibitor ([2]; HepG2, 5 μmol/L Gala-SR + β-galactosidase inhibitor, vs pure Gala-SR)	G6Pase and FGF21 expression, with galactosidase ([2]; HepG2, 5 μmol/L Gala-SR + β-galactosidase, vs pure Gala-SR)	G6Pase and FGF21 mRNA expression ([2]; HepG2 cells, 5 μmol/L, 24 h, compared to SR1078)	rhythmic expression amplitude of BMAL1, PER1, and PER2 [3]	hydrolysis upon addition of galactosidase (release of SR1078) [4]	safe dose for in vitro experiments ([5]; in vitro) [µmol/L]	safe dose for animal studies ([5]; mice) [mg/kg]
O=C(Nc1ccc(C(OCO[C@@H]2O[C@H](CO)[C@H](O)[C@H](O)[C@H]2O)(C(F)(F)F)C(F)(F)F)cc1)c1ccc(C(F)(F)F)cc1 [Gala-SR]	no discernible changes	downregulated	significantly upregulated	significant upregulation	more effectively enhanced	hydrolysis of galactose on, Gala-SR occurred		
O=C(Nc1ccc(C(O)(C(F)(F)F)C(F)(F)F)cc1)c1ccc(C(F)(F)F)cc1 [SR1078, reference compound]							5	10
